{"source": "paper PMC3652196", "about": "“Pharmacometrics of 3-Methoxypterostilbene: A Component of Traditional Chinese Medicinal Plants” (Evidence-based Complementary and Alternative Medicine : eCAM, 2013)", "key": {"[1]": {"tested_on": "α-glucosidase from Saccharomyces cerevisiae", "assay": "α-Glucosidase inhibition colorimetric assay (PNPG)", "type": "biochemical", "details": "0 to 200 μg/mL, n = 6"}, "[2]": {"details": "humans; cited from earlier work"}}}
{"smiles": "Oc1ccc(/C=C/c2cc(O)cc(O)c2)cc1", "note": "[resveratrol]", "values": [{"measurement": "α-Glucosidase inhibition (in words)", "setting": "[1]", "result": "clear positive concentration-dependent inhibition relationship"}, {"measurement": "bioavailability", "setting": "[2]", "result": "< 1", "unit": "%"}]}
